ChEMBL document CHEMBL1147201, “Structural requirements of HDAC inhibitors: SAHA analogs functionalized adjacent to the hydroxamic acid” (Bioorg Med Chem Lett, 2007)

These compounds were tested against Histone deacetylase (assay: Inhibition of HDAC by fluorescent assay).
Type: protein assay, Homo sapiens

| Structure (SMILES) | IC50 |
| --- | --- |
| O=C(CCCCCC(Cc1ccccc1)C(=O)NO)Nc1ccccc1 (configuration not stated) | 226 µM |
| CC(CCCCCC(=O)Nc1ccccc1)C(=O)NO (configuration not stated) | 134 µM |
| CCCCC(CCCCCC(=O)Nc1ccccc1)C(=O)NO (configuration not stated) | 72 µM |
| C=CCC(CCCCCC(=O)Nc1ccccc1)C(=O)NO (configuration not stated) | 144 µM |

Now from value to compound:

| IC50 | Structure (SMILES) |
| --- | --- |
| 87 µM | C#CCC(CCCCCC(=O)Nc1ccccc1)C(=O)NO (configuration not stated) |
| 449 µM | CCC(CCCCCC(=O)Nc1ccccc1)C(=O)NO (configuration not stated) |
| 154 µM | CCCC(CCCCCC(=O)Nc1ccccc1)C(=O)NO (configuration not stated) |
